Holding throughout (assay type): cell-based, human
For test [1], the system named is H1975 cells. The test can be described thus: Cell cycle, PI staining, flow cytometry. Particulars: 18 h (control 30.25). As to the method:
(§1) A variety of different cells in the logarithmic growth phase were inoculated evenly in a 6-well plate at a concentration of 1×10^6 cells/well, 2 ml for each well, and then incubated overnight. Then, different compounds were added, and each compound was set different concentrations. After 18 h, the cells were collected, resuspended in PBS, and centrifuged to remove the supernatant, to which was then added 0.5 ml of pre-cooled 75% absolute ethanol dropwise, followed by vortexing to mix the cells and standing overnight at 4° C. The solution was centrifuged at 1000 rpm/min for 4 min, and the supernatant was discarded. Propidium iodide staining solution was prepared by using 5.6 ml staining buffer, 210 μl propidium iodide staining solution (25×), and 56 μl RNaseA (2.5 mg/ml). 0.4 ml of propidium iodide staining solution was added to each tube to resuspend the cells, and then incubated for 30 min at room temperature in the dark. The cell suspension was gently pipetted to mix, filtered into a flow tube, and stored in the dark at 4° C. The cells were detected on the flow cytometer within 1 h.
(A flow cytometer gives signals particle by particle.)

The test system of test [2] is HCC827 cells. Nature of the test: Cell cycle, PI staining, flow cytometry. The conditions noted are these: 18 h (control 33.66). As to the method: as §1
The test system of test [3] is H1975 cells. The test can be described thus: Apoptosis, Annexin V-FITC/PI double staining, flow cytometry. The conditions noted are these: 18 h (control 9.2). As to the method: (§2) Apoptosis was detected by Annexin V-FITC/PI double staining method. A variety of different cells in the logarithmic growth phase were inoculated evenly in a 6-well plate at a concentration of 1×10^6 cells/well, 2 ml for each well, and then incubated overnight. Then, different compounds were added, and each compound was set different concentrations. After 18 h, the cells were collected with 0.25% trypsin without EDTA and washed twice with PBS solution. Then, the cells were stained by the apoptosis detection kit according to the instructions, and analyzed by flow cytometry.
(§3) In the experiment, human lung cancer cells HCC827 cells and H1975 cells were selected as the detection system. The control group was a blank control (DMSO). The test concentrations of the compounds were 0.5 μM and 5 μM. After treatment with the compounds for 18 h, the flow cytometry was used for detection. In the apoptosis result graph, the cells in quadrant E1 are necrotic cells, the cells in quadrant E2 are late apoptotic cells, the cells in quadrant E3 area represent live cells, and the cells in quadrant E4 are early apoptotic cells.

Test [4] concerns HCC827 cells. Described as above. Particulars: 18 h (control 10.8). As to the method: as §2, §3
The test system of test [5] is HCC827 cells. Nature of the test: Inhibition of cell proliferation, CCK8 method. Particulars: HCC827 EGFR mutant cells, 48 h, CCK8, read-out: Inhibitory activity (IC50) against HCC827. As to the method: (§4) The stock solution was diluted with the corresponding culture medium to the required concentration just before the experiment.
(§5) HBE cells and BEAS-2B cells are normal lung bronchial epithelial cell lines, and both cells were cultured in DMEM high glucose medium (supplemented with 10% fetal bovine serum and 1% double antibody) to the logarithmic growth phase; H460 cells, A549 cells, H1975 cells and HCC827 cells are lung cancer cell lines, and all of them were cultured in RPMI1640 medium (supplemented with 10% fetal bovine serum and 1% double antibody) to the logarithmic growth phase. Among them, H1975 cells and HCC827 cells are EGFR mutant cells.
(§6) The cells were counted, and then seeded in a 96-well plate at a density of 5000 cells/well, 100 μl for each well. The culture plate was moved into a CO2 incubator and incubated for 24 h at 37° C. and 5% CO2. Compounds at different concentrations were added to each well, 5 replicate wells for each concentration, and the cells were treated with the compounds for 48 hours. CCK8 detection reagent was added to each well according to the operation manual, and then the plate was further incubated for 1 h before terminating the culture. 450 nm wavelength was chosen, and the absorbance value of each well was adjusted on the microplate ELISA analyzer. The result was recorded. […] was taken as the horizontal axis, and absorbance as the vertical axis to plot a curve. The half inhibitory concentration (IC50) was calculated by Bliss method. Each experiment was repeated at least 3 times.
(§7) Normal lung cell lines and different lung cancer cell lines were selected for experiments.
On the technique in general: Tetrazolium dyes change colour on reduction, which living cells bring about.

The subject of another test is BEAS-2B cells. Nature of the test: Inhibition of cell proliferation, CCK8 method. The conditions noted are these: BEAS-2B normal bronchial epithelial cells, 48 h, read-out: Inhibitory activity (IC50) against BEAS-2B. As to the method:
(§8) Compounds 1-9 of the present invention were respectively weighed and dissolved in 1 ml of dimethyl sulfoxide (DMSO), to prepare a 10 mM drug solution, which was stored in a refrigerator at −20° C. in the dark after packaging. The stock solution was diluted with the corresponding culture medium to the required concentration just before the experiment.
as §5
as §6, with “When the cells were cultured to 90% of the growth density, the cells were digested with 0.25% trypsin to prepare a single cell suspension. The cells” for “The cells”
(§9) Normal lung cell lines and different lung cancer cell lines were selected for experiments. Amongst, the compound with high anti-cancer activity was screened, whose anti-tumor activity was further studied.

The next test concerns H460 cells. Nature of the test: Inhibition of cell proliferation, CCK8 method. Particulars: 48 h, read-out: Inhibitory activity (IC50) against H460. As to the method:
as §8, §5
as §6, with “When the cells were cultured to 90% of the growth density, the cells were digested with 0.25% trypsin to prepare a single cell suspension. The cells” for “The cells”
as §9

Another test deals with A549 cells. Nature of the test: Inhibition of cell proliferation, CCK8 method. The conditions noted are these: A549 lung adenocarcinoma cells, 48 h, read-out: Inhibitory activity (IC50) against A549. As to the method:
as §8, §5
as §6, with “When the cells were cultured to 90% of the growth density, the cells were digested with 0.25% trypsin to prepare a single cell suspension. The cells” for “The cells”
as §9

In test [6] the test system is normal cells and different lung cancer cell lines. Nature of the test: Inhibition of cell proliferation, CCK8 method, comparison in words over the whole cell panel. Particulars: BEAS-2B, HBE, H460, A549, H1975, HCC827; CCK8, 48 h. As to the method:
as §8, §5
as §6, with “When the cells were cultured to 90% of the growth density, the cells were digested with 0.25% trypsin to prepare a single cell suspension. The cells” for “The cells”
as §9

Test [7] has as its system H1975 cells. The test can be described thus: Inhibition of cell proliferation, CCK8 method. The conditions noted are these: H1975 EGFR mutant cells, 48 h, read-out: Inhibitory activity (IC50) against H1975. As to the method: as §4, §5, §6, §7
In a further test the test system is HBE cells. Nature of the test: Inhibition of cell proliferation, CCK8 method. Particulars: HBE normal bronchial epithelial cells, 48 h, CCK8; read-out: Inhibitory activity (IC50) against HBE. As to the method: as §4, §5, §6, §7
Where [8] appears, read: H460 large cell lung cancer cells.

Each structure is given as a SMILES string. Where two headings read alike, the source gives them in different places.

`C=CC(=O)Nc1cccc(Oc2nc(Nc3ccc(N4CCN(C)CC4)c(F)c3)nc3[nH]ccc23)c1` [Avitinib, reference compound]: the “S phase (%)” value with H1975 cells [1] (0.5 μM) was 3.74%; in the test with H1975 cells [1] (5 μM), 13.19%; in the test on HCC827 cells [2] (0.5 μM), 9.09%; in the test on HCC827 cells [2] (5 μM) it was 10.83%. The “Total apoptosis rate (%)” value was 9.5% with H1975 cells [3] (0.5 μM), 11.7% in the test with H1975 cells [3] (5 μM), 30.3% in the test with HCC827 cells [4] (0.5 μM) and 35.4% in the test on HCC827 cells [4] (5 μM). Besides, the IC50 in the test on HCC827 cells [5] (Homo sapiens) is 110 nM; in the test on BEAS-2B cells (Homo sapiens) it was 4.11 µM; in the test on H460 cells (Homo sapiens, NCI-H460, H460 large cell lung cancer cells), 5.68 µM; in the test on A549 cells (Homo sapiens) it was 2010 nM.

Consider `C=CC(=O)Nc1cccc(Oc2nc(Nc3ccc(N4CCN(C)CC4)c(F)c3)nc3[nH]ccc23)c1` [Compound 1], for which the “inhibitory effect on different cell lines (in words)” value in [6] was “basically the same as that of the positive control”. Further, the IC50 in the test with H1975 cells [7] is 2.06 µM; with HCC827 cells [5], 100 nM; with BEAS-2B cells, 3.68 µM; with H460 cells (setting [8]) it was 6.02 µM; with A549 cells it was 1920 nM.

As for `C=CC(=O)Nc1cccc(Oc2nc(Nc3ccc(N4CCN(C)CC4)cc3)nc3[nH]ccc23)c1` [Compound 3], the “inhibitory effect on different cell lines (in words)” value in [6] is recorded as “lower”. Moreover, the IC50 with H1975 cells [7] was 22 µM; in the test with HBE cells, 28.1 µM; in the test on HCC827 cells [5], 240 nM; in the test with BEAS-2B cells, 23.8 µM; with H460 cells (setting [8]), 36 µM; in the test with A549 cells, 9920 nM.

The term IC50 denotes the concentration that gives 50% inhibition.

Source of the values: patent publication US20230075765A1, “PYRROLO[2,3-D]PYRIMIDINE DERIVATIVE TARGETING EGFR MUTATION, AS WELL AS THE PREPARATIVE METHOD AND THE USE THEREOF” (WEST CHINA HOSPITAL, SICHUAN UNIVERSITY, priority 2020, published 2023).
